Columns and labels:
CYP1B1 mRNA = assay: Gene expression analysis (qPCR) in MDA-MB-468 cells; assay type: cell-based, human; settings: 1.0 μM, 6 h
Protocol: (§1) These analogues were specifically chosen because they were synthesised without the production of regioisomers, their structural differences are small while their biological differences are large, c.f. […] Neither analogue altered the expression of SULT1A1 (Figure 4D).
(§2) Gene expression was examined in MDA-MB-468 cells following 6 h treatment. Total RNA was extracted using the RNeasy Mini Kit (Qiagen) according to the manufacturer’s instructions. One µg of RNA was reverse transcribed using the QuanitTect Reverse Transcription Kit (Qiagen) according to the manufacturer’s instructions. Rotor-Gene SYBR Green PCR Kit (Qiagen) was used to perform qPCR on a Rotor-Gene 3,000 Thermo-Cycler Instrument using β2-microglobulin as a housekeeping gene (Qiagen). The primer sequences were purchased from Qiagen as follows: AhR (QT02422938), CYP1A1 (QT00012341), CYP1B1 (QT00209496), SULT1A1 (QT01665489), and β2M (QT00088935). HotStar Taq activation (95 °C for 5 min) was followed by 40 cycles of denaturation (95 °C for 5 s), and annealing/extension (60 °C for 10 s). The comparative Ct value method was used for data analysis. Results are presented as the mean ± standard error of the mean (SEM) of analysis conducted in duplicate and repeated on two separate occasions. Significant test results were determined using T-test analysis at p < 0.01 with a two tail distribution.

CYP1A1 mRNA = assay: as above; assay type: cell-based, human; settings: 1.0 μM, 6 h
Protocol: as §1, §2

AhR = target: T1, AhR (Homo sapiens, UniProt P35869); assay: AhR transcription reporter assay (HT29-Lucia AhR cells); assay type: cell-based; settings: 24 h
T1 construct: This cell line stably expresses the secreted Lucia luciferase reporter gene under the control of a minimal promoter; host or cells: HT29-Lucia AhR reporter cells
T1 sequence (P35869 11-848): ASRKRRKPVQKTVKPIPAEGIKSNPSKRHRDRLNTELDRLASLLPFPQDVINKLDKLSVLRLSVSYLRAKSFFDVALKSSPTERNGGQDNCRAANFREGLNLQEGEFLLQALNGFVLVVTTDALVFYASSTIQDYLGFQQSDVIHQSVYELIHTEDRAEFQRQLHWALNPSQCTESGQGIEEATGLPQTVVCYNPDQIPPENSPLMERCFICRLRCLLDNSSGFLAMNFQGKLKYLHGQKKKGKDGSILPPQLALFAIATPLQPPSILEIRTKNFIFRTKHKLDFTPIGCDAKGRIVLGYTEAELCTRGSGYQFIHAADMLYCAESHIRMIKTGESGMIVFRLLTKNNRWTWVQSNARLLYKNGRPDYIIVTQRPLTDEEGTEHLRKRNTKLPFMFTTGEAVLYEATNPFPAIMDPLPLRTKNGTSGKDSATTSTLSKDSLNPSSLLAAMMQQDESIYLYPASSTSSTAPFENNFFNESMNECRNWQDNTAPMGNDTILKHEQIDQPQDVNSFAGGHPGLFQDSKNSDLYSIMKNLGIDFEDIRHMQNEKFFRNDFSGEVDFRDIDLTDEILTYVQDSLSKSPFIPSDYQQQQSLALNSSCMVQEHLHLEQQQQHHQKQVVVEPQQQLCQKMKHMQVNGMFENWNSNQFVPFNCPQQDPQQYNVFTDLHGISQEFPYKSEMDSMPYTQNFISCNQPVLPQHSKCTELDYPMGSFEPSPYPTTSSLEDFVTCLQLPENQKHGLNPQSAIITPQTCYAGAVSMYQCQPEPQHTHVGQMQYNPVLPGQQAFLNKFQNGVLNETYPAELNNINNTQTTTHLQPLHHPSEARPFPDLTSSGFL
From the text: Our previous studies have shown that the activity of NAP-6 (2) and 10-Cl-BBQ (3) required the activation of the AhR pathway and the induction of CYP1 family of phase I metabolising enzymes ([Gilbert et al., 2020]; [Baker et al., 2021a]). Therefore, we sought to determine the activation of AhR using a stable AhR reporter assay in HT29-Lucia™ AhR cells, in the presence of each BBQ analogue (Figure 3). Activation of the AhR was indicated by enhanced luminescence caused by the translocation of the AhR to the nucleus of the cell and interaction with the xenobiotic response elements imbedded in the luciferase gene.
Stock solutions were prepared as follows and stored as 20 mM DMSO solutions at −20 °C. All cell lines were cultured in a humidified atmosphere 5% CO2 at 37 °C. The cancer cell lines were maintained in Dulbecco’s modified Eagle’s medium (DMEM) (Trace Biosciences, Australia) supplemented with 10% foetal bovine serum (FBS), 10 mM sodium bicarbonate, penicillin (100 IU/mL), streptomycin (100 μg/mL), and glutamine (4 mM). The non-cancer MCF10A cell line was cultured in DMEM:F12 (1:1) cell culture media, 5% heat inactivated horse serum, supplemented with penicillin (50 IU/mL), streptomycin (50 μg/mL), 20 mM Hepes, L-glutamine (2 mM), epidermal growth factor (20 ng/mL), hydrocortisone (500 ng/mL), cholera toxin (100 ng/mL), and insulin (10 μg/mL). The AhR reporter cell line HT29-Lucia™ (Invivogen, United States) was maintained in DMEM supplemented with 10% heat inactivated FBS, L-glutamine (2 mM), penicillin (100 IU/mL), streptomycin (100 μg/mL), 100 μg/mL Normocin™, and 100 μg/mL of the selective antibiotic Zeocin™. All cell lines were purchased from the American Type Culture Collection (ATCC), except for A2780 and A431 which were from the European Collection of Authenticated Cell Cultures (ECACC), and SJ-G2 cell line which was from Dr Mary Danks, St Jude Children’s Research hospital, Memphis, TN.
The activity of the AhR signalling pathway was measured using the stably transfected AhR cell line, HT29-Lucia™ (Invivogen, United States). This cell line stably expresses the secreted Lucia luciferase reporter gene under the control of a minimal promoter coupled with the human CYP1A1 gene entire regulatory sequence, containing six DREs. The Lucia luciferase reporter protein is readily measurable in the cell culture supernatant using QUANTI-Luc™. For the determination of AhR activity, 4 × 10^4 cells in 180 μL was plated into each well of a 96 well micro-titre plate in the absence of antibiotics and allowed to culture for 24 h prior to the addition of test compounds in a volume of 20 μL. At the indicated time, 20 μL of cell supernatant was transferred to a white luminometer plate and 50 µL of QUANTI-Luc was added immediately prior to reading the luminescence using a GloMax Explorer Luminescence Plate Reader. The promoter activity was conducted in duplicate and the values expressed as fold-change relative to DMSO (0.1%) treated cells. The AhR ligand, FICZ (6-formylindolo[3,2-b]carbazole) and AhR inhibitor CH223191 were included for study as positive and negative controls, respectively. […] Results are presented as the mean ± standard error of the mean (SEM) of analysis conducted in duplicate and repeated on three separate occasions.

[1] = test system: broad panel of cancer cell lines and non-cancer breast cell line MCF10A; settings: ref Gilbert et al., 2017; Gilbert et al., 2020; cited from earlier work
[2] = Solubility in the compound testing media; assay type: physicochemical
[3] = test system: MCF10A normal breast cells; assay: MTT growth inhibition with CYP1 (αNF) or SULT1A1 (quercetin) inhibitor; assay type: cell-based, human; settings: 3 and 5 at 0.1 µM, αNF 10 µM, quercetin 5 µM, 72 h (Supp Figure 1)
Protocol: This analysis confirms that both CYP1 and SULT1A1, activity is needed to induce the growth inhibitory effect of the BBQ analogue.
Cells in logarithmic growth were transferred to 96-well plates. Cytotoxicity was determined by plating cells in duplicate in 100 μL medium at a density of 2,500–4,000 cells/well in 96 well plates. On day 0, (24 h after plating) when the cells were in logarithmic growth 100 μL medium with or without the test agent was added to each well. After 72 h drug exposure growth inhibitory effects were evaluated using the MTT (3-[4,5-dimethylthiazol-2-yl]-2,5-diphenyltetrazolium bromide) assay with absorbance read at 540 nm. An eight-point dose response curve was produced, using MS Excel software. From these dose-response curves, the GI50 value was calculated, representing the drug concentration at which cell growth is 50% inhibited based on the difference between the optical density values on day 0 and those at the end of drug exposure ([Bradshaw et al., 2008]; [Zhang et al., 2009]). Each data point was conducted in duplicate and the mean ± S.E.M. calculated from four to five replicates (n = 4 or 5), which were performed on separate occasions and separate cell line passages. Where shown, significant test results were determined using T-test analysis at p < 0.01 and p < 0.05 with a two tail distribution.
Supp Figure 1. CYP1 and SULT1A1 inhibition ameliorates the effect of 3 and 5. Growth inhibition (72 h, MTT assay) of 3 and 5 (0.1 µM) in the presence of the CYP1 family inhibitor, α-naphthoflavone (αNF, 10 µM) and SULT1A1 inhibitor, quercetin (qu, 5 µM) in (A) MDA-MB-468 breast cancer cells and (B) MCF10A normal breast cells. Significant differences are at the P < 0.01 ** level, using a paired T-test with a two-tailed distribution.

Compound: 6-formylindolo[3,2-b]carbazole [FICZ, reference compound]
- CYP1B1 Fold change (mRNA vs DMSO control) (CYP1B1 mRNA): 3.7 fold
- CYP1A1 Fold change (mRNA vs DMSO control) (CYP1A1 mRNA): 19 fold
- AhR activation, Fold Reporter Induction (AhR; 0.5 μM, positive control): 2.7 fold

Compound: Cc1ccccc1N=Nc1ccc(NC(=O)c2ccnn2C)c(C)c1 [CH223191, reference compound]
- AhR activation, Fold Reporter Induction (AhR; 2.5 μM, negative control): 0.7 fold

Compound: N#C/C(=C\c1ccc[nH]1)c1ccc(Cl)c(Cl)c1 [Compound 1, (Z)-2-(3,4-dichlorophenyl)-3-(1H-pyrrol-2-yl)acrylonitrile]
- selective targeting of certain breast cancer cell lines compared with normal breast cells or other tumour types (fold) [1]: more than 500 fold

Compound: O=c1c2cccc3cccc(c32)c2nc3c(Cl)cc(Cl)cc3n12 [Compound 6, 10,12-Dichloro-7H-benzo[de]benzo[4,5]imidazo[2,1-a]isoquinolin-7-one]
- melting point: 292 to 294 °C
- solubility in the compound testing media [2]: insoluble

Compound: O=c1c(O)c(-c2ccc(O)c(O)c2)oc2cc(O)cc(O)c12 [quercetin, reference compound]
- effect on growth in normal MCF10A cells [3]: Neither 3, 5, αNF, or quercetin affected growth

Compound: O=c1cc(-c2ccccc2)oc2c1ccc1ccccc12 [α-naphthoflavone, reference compound]
- effect on growth in normal MCF10A cells [3]: Neither 3, 5, αNF, or quercetin affected growth
